# Values joined by “and” are separate entries in the source; they are usually repeats but may differ in a detail not shown here. Identical values can stand only once. Like-named read-outs stand apart in the source and are kept apart here.
# What was measured:
# [1] = tested on: Fusarium nivale (var. majus); assay: Fusarium nivale (var. majus)-test (wheat)/preventive
# Procedure: After the spray coating has been dried, the plants are slightly injured by using a sandblast and afterwards they are sprayed with a conidia suspension of Fusarium nivale (var. majus).
# The plants are placed in the greenhouse under a translucent incubation cabinet at a temperature of approximately 10° C. and a relative atmospheric humidity of approximately 100%.
# The test is evaluated 5 days after the inoculation.
# Septoria tritici = assay: Septoria tritici-test (wheat)/preventive; format: in vivo; conditions: preventive, evaluated 21 days after inoculation
# Phytophthora infestans = assay: whole plant or invertebrate; format: in vivo
# Sphaerotheca fuliginea = assay: Sphaerotheca test (cucumbers)/preventive; format: in vivo; conditions: for Efficacy in % found: Table 4d; for pest or weed control at 0.25 ppm / pest or weed control at 0.5 ppm: Podosphaera fuliginea, 168 h, read-out: Efficacy in % found; for pest or weed control at 0.25 ppm: 0.25 ppm a.i.
# [2] = tested on: Blumeria graminis f.sp. hordei; assay: Blumeria test (barley)/preventive; format: in vivo; conditions: for pest or weed control at 10 ppm / pest or weed control at 20 ppm: Blumeria graminis, 168 h, read-out: Efficacy in % found
# Leptosphaeria nodorum = Leptosphaeria nodorum test (wheat)/preventive; format: in vivo; conditions: for pest or weed control at 10 ppm / pest or weed control at 80 ppm / pest or weed control at 40 ppm: Parastagonospora nodorum, 192 h, read-out: Efficacy in % found; for pest or weed control at 40 ppm: 40 ppm a.i.
# Pyrenophora teres = assay: Pyrenophora teres-test (barley)/preventive; format: in vivo; conditions: preventive, evaluated 8 days after inoculation
# Venturia inaequalis = assay: Venturia test (apples)/preventive; conditions: for pest or weed control at 0.25 ppm / pest or weed control at 0.5 ppm: Venturia inaequalis, 240 h; for pest or weed control at 0.25 ppm: 0.25 ppm a.i.
# Procedure: After the spray coating has dried on, the plants are inoculated with an aqueous conidia suspension of the causal agent of apple scab (Venturia inaequalis) and then remain for 1 day in an incubation cabinet at approximately 20° C. and a relative atmospheric humidity of 100%.
# The plants are then placed in a greenhouse at approximately 21° C. and a relative atmospheric humidity of approximately 90%.
# The test is evaluated 10 days after the inoculation.
# Alternaria solani = assay: Alternaria test (tomatoes)/preventive; format: in vivo
# Puccinia triticina = assay: Puccinia triticina-test (wheat)/preventive; format: in vivo; conditions: preventive, evaluated 8 days after inoculation; for pest or weed control at 20 ppm: application rate 20 ppm a.i.; for Efficacy in % found: application rate 400 ppm a.i.
# Botrytis cinerea = assay: Botrytis test (beans)/preventive
# Procedure: After the spray coating has dried on, 2 small pieces of agar covered with growth of Botrytis cinerea are placed on each leaf. The inoculated plants are placed in a darkened chamber at 20° C. and a relative atmospheric humidity of 100%. 2 days after the inoculation, the size of the lesions on the leaves is evaluated.
# [3] = application rate 10 ppm, wheat, preventive, evaluated 8 days after inoculation
# [4] = Zymoseptoria tritici, 504 h, application rate 10 ppm a.i., read-out: Efficacy in % found
# [5] = Phytophthora infestans, 72 h, read-out: Efficacy in % found
# [6] = read-out: Efficacy in % found, Table 2b
# [7] = Alternaria solani, 72 h, Table 3a, 0.5 ppm a.i., read-out: Efficacy in % found
# [8] = Alternaria solani, 72 h, Table 3b, read-out: Efficacy in % found
# [9] = Alternaria solani, 72 h, Table 3b, 0.5 ppm, read-out: Efficacy in % found
# [10] = Puccinia triticina, 192 h, read-out: Efficacy in % found
# [11] = Zymoseptoria tritici, 504 h, application rate 20 ppm a.i., read-out: Efficacy in % found
molecule,measurement,setting,value
"CO/C=C(/C(=O)OC)c1ccccc1Oc1cc(Oc2ccccc2C#N)ncn1 [B3.3, azoxystrobin]",Efficacy in % found,"[1]; Table 8e, 40 ppm a.i.",0%
same,Efficacy in % found,Septoria tritici; application rate 10 ppm a.i.,29%
same,Efficacy in % found,"Phytophthora infestans; Table 1b, 1 ppm a.i.",50%
same,Efficacy in % found,Sphaerotheca fuliginea; 2 ppm a.i.,50%
same,Efficacy in % found,"[2]; Table 6a, 10 ppm a.i.",0%
"Cc1nn(C)c(F)c1C(=O)Nc1ccccc1C(C)CC(C)C (stereo not drawn) [B2.20, penflufen]",Efficacy in % found,"[1]; Table 8a, 20 ppm",14%
same,Efficacy in % found,"[1]; Table 8b, 20 ppm a.i.",29%
same,Efficacy in % found,"Leptosphaeria nodorum; application rate 20 ppm, wheat, preventive, evaluated 8 days after inoculation",0%
same,Efficacy in % found,Septoria tritici; application rate 20 ppm a.i.,29%
same,Efficacy in % found,Sphaerotheca fuliginea; 0.5 ppm a.i.,0%
same,Efficacy in % found,Pyrenophora teres; application rate 20 ppm a.i.,29%
"Cc1ccc(C(C)NC(=O)[C@@H](NC(=O)OC(C)C)C(C)C)cc1 (stereo partly drawn) [B9.4, iprovalicarb]",Efficacy in % found,"Phytophthora infestans; Table 1a, 5 ppm a.i.",48%
same,Efficacy in % found,Pyrenophora teres; application rate 100 ppm a.i.,33%
same,Efficacy in % found,"[2]; Table 6e, 100 ppm a.i.",0%
"Cn1nc(C(F)F)c(C(=O)N(Cc2c(C(F)(F)F)ccc(Cl)c2F)C2CC2)c1F [A18, N-[3-chloro-2-fluoro-6-(trifluoromethyl)benzyl]-N-cyclopropyl-3-(difluoromethyl)-5-fluoro-1-methyl-1H-pyrazole-4-carboxamide]",pest or weed control at 10 ppm,"[1]; Microdochium nivale, in Triticum aestivum, 120 h, read-out: Efficacy in % found, Table 8b, 10 ppm a.i.",43%
same,pest or weed control at 10 ppm,Leptosphaeria nodorum; [3],0%
same,pest or weed control at 10 ppm,Septoria tritici; [4],89%
same,pest or weed control at 0.25 ppm,Phytophthora infestans; [5],0%
same,pest or weed control at 100 ppm,Phytophthora infestans; [5],32%
same,pest or weed control at 0.25 ppm,Sphaerotheca fuliginea; Table 4c,13%
same,pest or weed control at 0.25 ppm,Venturia inaequalis; [6],0%
same,pest or weed control at 10 ppm,"[2]; Table 6e, 10 ppm a.i.",29%
same,pest or weed control at 10 ppm,"[2]; Table 6d, 10 ppm",56%
same,pest or weed control at 0.5 ppm,Alternaria solani; [7],30%
same,pest or weed control at 0.25 ppm,Alternaria solani; [8],30%
same,pest or weed control at 0.5 ppm,Alternaria solani; [9],43%
same,pest or weed control at 10 ppm,"Puccinia triticina; Puccinia triticina, 192 h, application rate 10 ppm a.i., read-out: Efficacy in % found",33%
"OC(Cc1ccccc1Cl)(Cn1nc[nH]c1=S)C1(Cl)CC1 (stereo not drawn) [B1.41, prothioconazole]",pest or weed control at 80 ppm,"Septoria tritici; Zymoseptoria tritici, 504 h, application rate 80 ppm a.i., read-out: Efficacy in % found",43%
same,Efficacy in % found,Pyrenophora teres; application rate 20 ppm a.i.,14% and 22%
same,pest or weed control at 2 ppm,"Alternaria solani; Alternaria solani, 72 h, Table 3c, 2 ppm, read-out: Efficacy in % found",0%
same,pest or weed control at 20 ppm,Puccinia triticina; [10],11%
same,pest or weed control at 80 ppm,"Puccinia triticina; Puccinia triticina, 192 h, application rate 80 ppm a.i., read-out: Efficacy in % found",11%
fludioxonil [B13.3],Efficacy in % found,"Botrytis cinerea; Table 5a, 2.5 ppm a.i.",53%
same,Efficacy in % found,"Botrytis cinerea; Table 5b, 0.5 ppm a.i.",0%
same,Efficacy in % found,"[2]; Table 6e, 100 ppm a.i.",0%
same,Efficacy in % found,"[2]; Table 6f, 400 ppm a.i.",13%
same,Efficacy in % found,Puccinia triticina,0%
"CC(C1CC1)C(O)(Cn1cncn1)c1ccc(Cl)cc1 (stereo not drawn) [B1.5, cyproconazole]",pest or weed control at 80 ppm,"Leptosphaeria nodorum; Table 9a, 80 ppm a.i.",29%
same,pest or weed control at 20 ppm,Septoria tritici; [11],29%
same,pest or weed control at 0.5 ppm,"Sphaerotheca fuliginea; Table 4c, 0.5 ppm a.i.",30%
same,Efficacy in % found,Pyrenophora teres; application rate 20 ppm a.i.,0%
same,pest or weed control at 20 ppm,[2]; Table 6d,78%
same,pest or weed control at 20 ppm,Puccinia triticina; [10],56%
"O=C(NCCc1ncc(C(F)(F)F)cc1Cl)c1ccccc1C(F)(F)F [B2.6, fluopyram]",pest or weed control at 80 ppm,"Leptosphaeria nodorum; Table 9a, 80 ppm a.i.",0%
same,pest or weed control at 80 ppm,"Leptosphaeria nodorum; application rate 80 ppm, wheat, preventive, evaluated 8 days after inoculation",0%
same,pest or weed control at 20 ppm,Septoria tritici; [11],57%
same,Efficacy in % found,Pyrenophora teres; application rate 20 ppm a.i.,57%
same,pest or weed control at 20 ppm,[2]; Table 6d,11%
"Cn1cc(C(=O)Nc2ccccc2C2CC2C2CC2)c(C(F)F)n1 (stereo not drawn) [B2.22, sedaxane]",Efficacy in % found,"[1]; Table 8e, 80 ppm a.i.",0%
same,Efficacy in % found,"Leptosphaeria nodorum; Table 9a, 80 ppm a.i.",0%
same,Efficacy in % found,Septoria tritici; application rate 20 ppm a.i.,14%
same,Efficacy in % found,"Venturia inaequalis; Table 2d, 0.5 ppm a.i.",53%
same,Efficacy in % found,Pyrenophora teres; application rate 20 ppm a.i.,0%
"CC1(C(=O)Nc2ccc(O)c(Cl)c2Cl)CCCCC1 [B1.16, fenhexamid]",Efficacy in % found,"Botrytis cinerea; Table 5a, 2.5 ppm a.i.",51%
same,Efficacy in % found,"Botrytis cinerea; Table 5b, 2 ppm a.i.",0%
same,pest or weed control at 50 ppm,"Alternaria solani; Alternaria solani, 72 h, Table 3b, 50 ppm, read-out: Efficacy in % found",22%
pyrimethanil [B7.7],Efficacy in % found,"Botrytis cinerea; Table 5b, 10 ppm a.i.",24%
same,Efficacy in % found,"Alternaria solani; Table 3b, 25 ppm",26%
same,Efficacy in % found,Puccinia triticina,11%
"CO/N=C(/C1=NOCCO1)c1ccccc1Oc1ncnc(Oc2ccccc2Cl)c1F [B3.12, fluoxastrobin]",pest or weed control at 10 ppm,"[1]; Microdochium nivale, in Triticum aestivum, 120 h, read-out: Efficacy in % found, Table 8c, 10 ppm a.i.",50%
same,pest or weed control at 10 ppm,"[1]; Microdochium nivale, in Triticum aestivum, 120 h, read-out: Efficacy in % found, Table 8e, 10 ppm a.i.",43%
same,pest or weed control at 40 ppm,Leptosphaeria nodorum; Table 9a,43%
same,pest or weed control at 10 ppm,Leptosphaeria nodorum; [3],0%
same,pest or weed control at 10 ppm,Septoria tritici; [4],14%
same,pest or weed control at 2 ppm,Phytophthora infestans; [5],49%
same,pest or weed control at 0.5 ppm,"Venturia inaequalis; read-out: Efficacy in % found, Table 2b, 0.5 ppm a.i.",61%
metalaxyl [B12.9],Efficacy in % found,"Leptosphaeria nodorum; Table 9c, 100 ppm a.i.",33%
same,Efficacy in % found,"Leptosphaeria nodorum; application rate 400 ppm a.i., wheat, preventive, evaluated 8 days after inoculation",0%
same,Efficacy in % found,Septoria tritici; application rate 100 ppm a.i.,10%
same,Efficacy in % found,"Phytophthora infestans; Table 1a, 5 ppm a.i.",18%
same,Efficacy in % found,Puccinia triticina,11%
"CC(C)c1ccccc1CN(C(=O)c1c(C(F)F)nn(C)c1F)C1CC1 [A1, N-cyclopropyl-3-(difluoromethyl)-5-fluoro-N-(2-isopropylbenzyl)-1-methyl-1H-pyrazole-4-carboxamide]",pest or weed control at 10 ppm,"[1]; Microdochium nivale, in Triticum aestivum, 120 h, read-out: Efficacy in % found, Table 8a, 10 ppm",0%
same,pest or weed control at 40 ppm,"[1]; Microdochium nivale, in Triticum aestivum, 120 h, read-out: Efficacy in % found, Table 8a, 40 ppm",29%
same,pest or weed control at 10 ppm,"Leptosphaeria nodorum; Table 9a, 10 ppm a.i.",29%
same,pest or weed control at 40 ppm,Leptosphaeria nodorum; Table 9a,71%
same,pest or weed control at 10 ppm,"Leptosphaeria nodorum; Table 9b, 10 ppm a.i.",0%
same,pest or weed control at 10 ppm,"Leptosphaeria nodorum; Table 9c, 10 ppm a.i.",50%
same,pest or weed control at 10 ppm,Septoria tritici; [4],50%
same,pest or weed control at 0.25 ppm,Phytophthora infestans; [5],0%
same,pest or weed control at 100 ppm,Phytophthora infestans; [5],0%
same,pest or weed control at 0.25 ppm,Sphaerotheca fuliginea; Table 4a,19%
same,pest or weed control at 0.5 ppm,"Sphaerotheca fuliginea; Table 4a, 0.5 ppm a.i.",69%
same,pest or weed control at 0.25 ppm,Sphaerotheca fuliginea; Table 4b,48%
same,pest or weed control at 0.25 ppm,Sphaerotheca fuliginea; Table 4c,21%
same,pest or weed control at 0.5 ppm,"Venturia inaequalis; read-out: Efficacy in % found, Table 2a, 0.5 ppm a.i.",57%
same,pest or weed control at 0.25 ppm,Venturia inaequalis; [6],31%
same,pest or weed control at 0.25 ppm,"Venturia inaequalis; read-out: Efficacy in % found, Table 2c",0%
same,pest or weed control at 0.5 ppm,"Venturia inaequalis; read-out: Efficacy in % found, Table 2f, 0.5 ppm a.i.",29%
same,pest or weed control at 0.5 ppm,Alternaria solani; [7],38%
same,pest or weed control at 0.25 ppm,Alternaria solani; [8],53%
same,pest or weed control at 0.5 ppm,Alternaria solani; [9],59%
same,pest or weed control at 0.5 ppm,"Alternaria solani; Alternaria solani, 72 h, Table 3c, 0.5 ppm, read-out: Efficacy in % found",16%
same,pest or weed control at 62.5 ppm,"Puccinia triticina; Puccinia triticina, 192 h, application rate 62.5 ppm a.i., read-out: Efficacy in % found",57%

# — patent US12642271B2, “Active compound combinations comprising a (thio)carboxamide derivative and a fungicidal compound” (Bayer CropScience Aktiengesellschaft, priority 2011, dated 2026)
